Data published in patent US6673902B2, “Cyclin D binding factor, and uses thereof” (St. Jude Children's Research Hospital, priority 1996, dated 2004).

Key:
NIH-3T3 fibroblasts = assay: BrdU incorporation in transfected NIH-3T3 fibroblasts; format: cell-based, mouse; details: for % Cells BrdU Positive: Table 2, expression vector 3 μg/10 ml; for % Cells BrdU Positive in 10% FCS: nonstarved cells; for % Cells BrdU Positive in 0.1% FCS: starved cells
Description: BrdU is added to NIH-3T3 cells after the experimental treatment and the cells were incubated for twenty-two hours in DMEM plus 10% fetal calf serum (FCS). The cells were then stained for DMP1 expression and/or BrdU incorporation. The nucleic acids encoding the wildtype DMP1 and the deletion and point mutants had been constructed so as to express the corresponding proteins with Flag-tags. To stain for DMP1 expression, mouse monoclonal anti-Flag antibodies (12 μg/ml) [Kodak] were incubated with the cells in TBS-Ca^+ without FCS for one hour at room temperature. After washing the cells, horse anti-mouse biotinylated antibodies at a 1:500 dilution were added to the cells in TBS plus 5% FCS and incubated for 30 minutes at room temperature. After washing the cells, strefptavidin linked to Texas red [Amersham] was then added at a 1:500 dilution for 30 minutes at room temperature. To stain for BrdU incorporation, 1.5N HCl was added to the cells for ten minutes at room temperature to denature the DNA. After washing the cells, sheep anti-BrdU antibodies [Fitzgerald] at a 1:12 dilution were then added for one hour at room temperature. After washing the cells, rabbit FITC-conjugated anti-sheep antibodies [Vector] at 1:100 dilution was then incubated for 30 minutes at room temperature.
NIH-3T3 cells were placed on cover slides and transfected with the expression vectors (pFLEX-DMP1 or the corresponding vector containing the deletion or point mutants of mouse DMP1 plus or minus cyclin D or E) for fourteen hours. The cells were then washed twice and DMEM plus 10% FCS was added and the cells incubated for eight hours. Half of the cells were starved by washing twice with 0.1% FCS, and then incubated for twenty-four hours in 0.1% FCS in DMEM. The remaining cells were not starved but were incubated for twenty-four hours in DMEM plus 10% FCS without washing. BrdU was added to both groups of cells and the cells were incubated for twenty-two hours in DMEM plus 10% FCS.
The cells were then restimulated to enter the cell cycle synchronously with DMEM plus 10% FCS. At the same time, 5′-Bromo-2′ Deoxyuridine (BrdU) was added to the medium. The cells were fixed 22 hours later in methanol acetone (1:1) and stained for BrdU incorporation and DMP1 expression as described in the Materials and Methods.

wild-type MEFs = assay: BrdU incorporation / cell cycle arrest in wild-type MEFs; format: cell-based, mouse; details: retroviral infection
Description: (§1) BrdU incorporation and immunofluorescence. Wild-type or ARF-null MEFs (4×10^4 cells) were seeded on gelatin-coated coverslips 16 hours before virus infection. Cells were infected three times with empty vector, or vectors expressing murine DMP1, human c-Myc, human E2F-1, or human Ets1. Cells were labeled 36 hours after virus infection with bromodeoxyuridine (BrdU, Sigma) for 14 hours in complete medium. For pulse labeling, MEFs were treated with 2 μM4-HT for 36 hours and labeled with BrdU for three hours at different intervals throughout the inductive phase. Cells were fixed in ice-cold methanol-acetone (1:1) for 10 min at −20° C. and then were stained with affinity-purified antibodies to DMP1 (AF) [Hirai and Sherr, Mol. Cell. […]
(§2) Based on the above observations, it was determined as to whether introduction of DMP1 would induce synthesis of the endogenous ARF protein in normal diploid fibroblast strains. […] Although the blot was normalized for protein input, the levels of p19^ARF induced by DMP1 were calculated to be 2-fold higher than those induced by Myc, because fewer cells were productively infected with the DMP1 virus in this experiment (see FIG. 15A).

32P-BS2 Probe = assay: EMSA with 32P-BS2 probe on transfection lysates of NIH-3T3 fibroblasts; format: binding; details: EMSA, 32P-BS2 probe, lysates of transfected NIH-3T3 fibroblasts
Description: Double-stranded oligonucleotides containing potential DMP1 binding sites (BS1 and BS2) and mutated versions (M1-M4) (FIG. 5B) are end-labeled with ^32P using the Klenow fragment of DNA polymerase and α-^32P-dATP (6000 Ci/mmol; Dupont NEN) (8). Nuclear extracts from mouse NIH-3T3 or CTLL cells are prepared with buffer containing 0.4 M NaCl (2). Mammalian cell extracts (15 μg protein) or Sf9 lysates (corresponding to 5×10^2 infected cells) containing ˜4 ng recombinant DMP1 are mixed with 3 ng of ^32P-labeled probe (1×10^5 cpm) in 15 ul Binding buffer containing 2.5 μg of poly(dI-dC) and 2.5 μg BSA and incubated at 4° C. for 30 minutes. For competition experiments, the indicated amounts of unlabeled oligonucleotides are added to the reactions before addition of the labeled probe. In some experiments, a bacterially produced GST-Ets2 fusion protein containing the complete Ets2 DNA-binding domain (10) is used in place of Sf9 extracts containing recombinant DMP1. Protein-DNA complexes are separated on nondenaturing 4% polyacrylamide gels as described (8). Where indicated, antiserum to DMP1 together with 2.5 μg salmon testis DNA (Sigma; used to reduce nonspecific DNA binding activity caused by serum addition) is preincubated with extracts for 30 minutes at 4° C. prior to initiation of binding reactions. Immune complexes are either removed by adsorption to protein A-Sepharose beads (immunodepletion experiments) or are allowed to remain (“supershift” experiments).
A series of deletion mutants and a point mutant of DMP1, K319E, (in which the lysine at position 319 of SEQ ID NO:1 is replaced by a glutamic acid) were prepared and used to determine the DNA-binding domain of DMP1 by electrophoretic mobility shift assay (EMSA) using a ^32P labeled BS2 probe. The DNA-binding domain of DMP1 was mapped to a central region containing the three MYB repeats plus adjacent flanking sequences: a BstEII to NcoI fragment encoding amino acids 87-458 of SEQ ID NO:1 (Table 1). This region alone was necessary and sufficient for DNA binding.

ARF-null MEFs = assay: BrdU incorporation / cell cycle arrest in ARF-null MEFs; format: cell-based, mouse; details: retroviral infection
Description: as §1, §2

[1] = tested on: DMP1-responsive promoter (pGL2BS2); assay: Transactivation of luciferase reporter plasmid under control of a DMP1-responsive promoter in NIH-3T3 fibroblasts; format: cell-based, mouse; details: vector without insert set to 1.0
From the text: Coexpression of a D-type cyclin with DMP1 overrides the ability of DMP1 to transactivate a luciferase gene under the control of an artificial DMP1-responsive promoter (Table 4), as well as the ability of DMP1 to inhibit cell growth.

[2] = additive None, labeled 22 hours
[3] = expression vector 3 μg/10 ml, pGL2BS2 8 μg/10 ml

Substance | % Cells BrdU Positive (NIH-3T3 fibroblasts) [%] | % Cells BrdU Positive in 10% FCS (NIH-3T3 fibroblasts; [2]) [%] | % Cells BrdU Positive in 10% FCS (NIH-3T3 fibroblasts; additive cyclin D2) [%] | % Cells BrdU Positive in 10% FCS (NIH-3T3 fibroblasts; additive cyclin E) [%] | % Cells BrdU Positive in 0.1% FCS (NIH-3T3 fibroblasts; [2]) [%] | % Cells BrdU Positive in 0.1% FCS (NIH-3T3 fibroblasts; additive cyclin D2) [%] | % Cells BrdU Positive in 0.1% FCS (NIH-3T3 fibroblasts; additive cyclin E) [%] | cell cycle arrest (wild-type MEFs) | 32P-labeled Band (32P-BS2 Probe) | cell cycle arrest (ARF-null MEFs) | Luciferase Activity ([1]; Table 4, DMP1 coexpressed with the additive named as label (DMP1 row: no additive)) | Luciferase Activity [1, 3]
DMP1: murine cyclin D-associated myb-like transcription factor, 761 amino acids, SEQ ID NO:1 | 12 | 30 | 80 | 82 | 15 | 57 | 56 | underwent cell cycle arrest | Yes | refractory | 8.4 | 8.4
M3: DMP1 deletion mutant (NcoI), amino acids 1-458 of SEQ ID NO:1 | 24 | – | – | – | – | – | – | – | Yes | – | – | 2.3
